PubChem BioAssay (NCI)
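Compound exposure: 48 hours, 5 concentrations, 96-well plates. GI50: concentration for 50% inhibition of growth. Definition used: TGI = concentration required for complete inhibition of growth.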

Tests used:
Assay in all cases: growth of human tumour cells (NCI), 48 h
786-0 renal = system: 786-0 renal
HS 578T breast = system: HS 578T breast
M14 melanoma = system: M14 melanoma
MCF7 breast = system: MCF7 breast
MDA-MB-231 breast = system: MDA-MB-231 breast
MDA-MB-435 = system: MDA-MB-435
PC-3 prostate = system: PC-3 prostate
T-47D breast = system: T-47D breast
DMS 273 small cell lung = system: DMS 273 small cell lung
KM20L2 colon = system: KM20L2 colon
XF 498 CNS = system: XF 498 CNS
SR leukemia = system: SR leukemia

Structure (SMILES)	TGI (786-0 renal)	TGI (HS 578T breast)	TGI (M14 melanoma)	TGI (MCF7 breast)	TGI (MDA-MB-231 breast)	TGI (MDA-MB-435)	TGI (PC-3 prostate)	TGI (T-47D breast)	TGI (DMS 273 small cell lung)	TGI (KM20L2 colon)	TGI (XF 498 CNS)	TGI (SR leukemia)	GI50 (M14 melanoma)	GI50 (MDA-MB-231 breast)	GI50 (MDA-MB-435)	GI50 (PC-3 prostate)	GI50 (HS 578T breast)	GI50 (MCF7 breast)	GI50 (SR leukemia)	GI50 (T-47D breast)
COc1ccc(C2=[S+]C(c3ccccc3)(c3ccccc3)c3ccccc32)cc1	34.9 µM	68 µM	31.4 µM	> 100 µM	61.1 µM	41.1 µM	> 100 µM	84.3 µM	–	–	–	–	–	–	–	–	–	–	–	–
O=C1C(CO)=C[C@H](O)[C@H]2O[C@@H]12	–	–	–	271 µM	–	–	–	–	485 µM	> 625 µM	359 µM	–	–	–	–	–	–	–	–	–
c1cc2c3c(c1)c1cc4c(cc1c[n+]3CC2)OCO4	–	–	–	30.3 µM	–	–	–	–	30.5 µM	49.7 µM	10.9 µM	–	–	–	–	–	–	–	–	–
c1ccc2c(c1)c1ccccc1n2Cn1c2ccccc2c2ccccc21	–	–	> 100 µM	–	> 100 µM	> 100 µM	> 100 µM	> 100 µM	–	–	–	> 100 µM	–	–	–	–	–	–	–	–
COc1cccc2c1C(=O)c1c(O)c3c(c(O)c1C2=O)C[C@@](O)(C(=O)COC(=O)c1ccccc1)C[C@@H]3OC1CC(N)C(O)C(C)O1 (stereo partly specified)	–	–	1.35 µM	–	1.79 µM	0.284 µM	0.744 µM	–	–	–	–	0.225 µM	0.21 µM	0.376 µM	0.137 µM	0.194 µM	–	–	–	–
Cc1ccc(Cl)cc1N=NC(=O)NNc1cc(Cl)ccc1C	–	54.8 µM	34.7 µM	80.7 µM	40.3 µM	99 µM	46.3 µM	> 100 µM	–	–	–	> 100 µM	–	–	–	–	–	–	–	–
O=C(NN1C(=O)C(Cl)C1c1cccc([N+](=O)[O-])c1)c1ccccc1O (stereo unspecified)	–	–	> 100 µM	–	–	–	–	–	–	> 100 µM	> 100 µM	> 100 µM	–	–	–	–	–	–	–	–
COc1cc(-c2ccc(N=Nc3ccc4c(S(=O)(=O)O)cc(S(=O)(=O)O)c(N)c4c3O)c(OC)c2)ccc1N=Nc1ccc2c(S(=O)(=O)O)cc(S(=O)(=O)O)c(N)c2c1O	–	–	–	> 100 µM	–	–	–	–	> 100 µM	> 100 µM	> 100 µM	–	–	–	–	–	–	–	–	–
O=c1nc2ccc([N+](=O)[O-])cc2[n+]([O-])[nH]1	> 100 µM	> 100 µM	> 100 µM	> 100 µM	> 100 µM	> 100 µM	> 100 µM	> 100 µM	–	–	–	> 100 µM	–	–	–	–	–	–	–	–
CCOc1cc(/C=C/C(=O)C(C(=O)/C=C/c2ccc(OC(=O)CNc3nc4ccccc4[nH]3)c(OCC)c2)C(=O)CNc2nc3ccccc3[nH]2)ccc1OC(=O)CNc1nc2ccccc2[nH]1	–	5.18 µM	6.76 µM	3.56 µM	7.29 µM	6.92 µM	6.23 µM	14.9 µM	–	–	–	2.53 µM	2.14 µM	2.39 µM	2.07 µM	2.12 µM	1.83 µM	1.06 µM	0.788 µM	2.86 µM
c1ccc2c(c1)NCc1cc3ccccc3nc1O2	–	–	–	> 100 µM	–	–	–	–	> 100 µM	–	> 100 µM	–	–	–	–	–	–	–	–	–
C/C(=N\NC(=O)c1ccc(Cl)cc1)c1nc2ncccc2[nH]1	55.3 µM	93.5 µM	> 100 µM	> 100 µM	> 100 µM	> 100 µM	> 100 µM	> 100 µM	–	–	–	> 100 µM	–	–	–	–	–	–	–	–
O=C(N/N=C\c1cccc2ccccc12)Nc1ccccc1	–	> 100 µM	> 100 µM	> 100 µM	–	> 100 µM	> 100 µM	> 100 µM	–	–	–	> 100 µM	–	–	–	–	–	–	–	–
O=C1CCC[C@H]2O[C@@H](COC(=O)c3ccccc3)C[C@H]2O1	–	> 100 µM	> 100 µM	> 100 µM	> 100 µM	> 100 µM	> 100 µM	> 100 µM	–	–	–	> 100 µM	–	–	–	–	–	–	–	–
Cc1cc(N/N=C/c2nc(-c3ccc(Cl)cc3)oc2C)c2cc(Br)ccc2n1	–	28.3 µM	4.55 µM	–	12 µM	3.94 µM	6.07 µM	3.51 µM	–	–	–	–	2.02 µM	3.43 µM	1.91 µM	2.31 µM	4.33 µM	–	–	1.79 µM
